# From patent publication US5519008A, “Derivatives of triterpenoid acids as inhibitors of cell-adhesion molecules ELAM-1 (E-selectin) and LECAM-1 (L-selectin)” (Glycomed Incorporated, priority 1992, dated 1996)
# How the values were obtained:
# [1] = tested on: arachidonic acid (AA), murine skin inflammation; test: arachidonic acid (AA) murine skin (ear) inflammation model; format: in vivo; settings: 10 μl of 100mg/ml solution applied to the ear immediately after AA; 6mm ear disk weighed 90 minutes later; average of 6 experiments
# Experimental: For comparison, glycyrrhetinic acid was also tested. […] 10 μl of each compound was applied to the ear. […] 90 minutes later a 6mm disk of each ear was removed, and weighed. […] The results were the average of 6 experiments.
# [2] = literature statement, Baren et al., J. Med. Chem. 17(2) (1974) 184-191; cited from earlier work
Compound,reduction of the % maximal inflammatory response caused by AA alone [1],aldosterone (DCA)-like activity [2]
CC1(C)[C@@H](O)CC[C@]2(C)[C@H]3C(=O)C=C4[C@@H]5C[C@@](C)(C(=O)O)CC[C@]5(C)CC[C@@]4(C)[C@]3(C)CC[C@@H]12 [glycyrrhetinic acid],about 60%,–
CC1(C)[C@@H](O)CC[C@]2(C)[C@H]3CC=C4[C@@H]5C[C@@](C)(C(=O)O)CC[C@]5(C)CC[C@@]4(C)[C@]3(C)CC[C@@H]12 [11-deoxoglycyrrhetinic acid],–,does not substantially show the DCA activity
3β-O-(α-L-fucopyranosyl)-18β-olean-12-en-30-oic Acid [3-0-fucoside-18-β glycyrrhetinic acid],about 60%,–
